Source: ChEMBL document CHEMBL5046279, “Discovery of a Partial Glucokinase Activator Clinical Candidate: Diethyl ((3-(3-((5-(Azetidine-1-carbonyl)pyrazin-2-yl)oxy)-5-isopropoxybenzamido)-1H-pyrazol-1-yl)methyl)phosphonate (BMS-820132)” (J Med Chem, 2022)
Calls of active or inactive are those of the source.

Columns and labels:
Type in all cases: functional, organism-based
[1] = system: Mus musculus; assay: Anti-hyperglycemic activity in C57BL/6J DIO mouse assessed as reduction in plasma glucose level at 3 to 30 umol/kg measured on day 1 by OGTT; conditions: dose 3-30 µM/Kg
[2] = organism: Mus musculus; assay: Anti-hyperglycemic activity in C57BL/6J DIO mouse assessed as reduction in plasma glucose level incubated for 1 hr by OGTT; conditions: dose 1-10 µM/Kg
[3] = system: Mus musculus; assay: Anti-hyperglycemic activity in C57BL/6J DIO mouse assessed as reduction in plasma glucose level at 0.3 umol/kg at 120 mins post dose by OGTT; conditions: dose 0.3 µM/Kg

Measured: Activity

CCOP(=O)(Cn1ccc(NC(=O)c2cc(Oc3cnc(C(=O)N4CCC4)cn3)cc(OC(C)C)c2)n1)OCC
active: [1] | [2] Dose-Dependent Effect | [3]
